From US7357944B2, “Liposomal analgesic drug compositions prepared in GMV using an ammonium sulfate gradient” (New York University, priority 1998, dated 2008)
Read-outs that look alike come from different tables or passages of the source.

Assays:
mice [1] = details: mouse, in vivo
Protocol: (§1) Analgesia regressed within two hours (see FIG. 13).
To determine the effect on overall body temperature of this treatment, the rectal temperature was measured in all animals cooled over the site of injection (ipsalateral) or over the contralateral abdomen, using both GMV-encapsulated bupivacaine and nonencapsulated (plain) bupivacaine. […] For FIG. 14A, cooling was initiated at zero hours (with administration) and discontinued at nine hours; for FIG. 14B, cooling was initiated at zero hours and discontinued at one hour. There were no significant differences observed as a function of the site of cooling. […] Animals in the GMV group (FIG. 14A) returned to baseline body temperature within about 10 minutes after cessation of cooling.

[2] = BUP partition between octanol and aqueous ammonium sulfate at various pH; format: physicochemical; details: for logD: octanol/aqueous ammonium sulfate, read-out: BUP octanol/(NH4)2(SO4) partition coefficient (converted)
male Swiss-Webster mice = experiment: Analgesia (sensory block) after subcutaneous injection, response to cutaneous electrical stimulation; format: in vivo; details: 0.15 ml at 0.5%
Protocol: Analgesia was assessed in male Swiss-Webster mice, as described in Example 2, using response to cutaneous electrical stimulation. Prior to administering analgesic, the control vocalization threshold (current required to produce a vocalization response) was determined.
For testing, 150 μl of test solution was injected subcutaneously over the abdomen, and sensory block was assessed at regular intervals, i.e., 15 min for 0.5% BUP formulations and 30 min for 1% and 2% formulations. Failure to vocalize in response to the threshold current was taken as evidence of analgesia. Testing was terminated when two successive stimuli provoked a vocalization. Duration of analgesia was taken as the time from injection to the last stimulus at which no vocalization occurred.
as §1
The Institutional Animal Care and Use Committee approved all experiments. Male Swiss-Webster mice weighing 28±3 g were used. Animals had free access to food and water, and were maintained on a 12 hour dark-light cycle. Prior to testing, the hair overlying the abdomen was shaved. Analgesia was assessed using response to cutaneous electrical stimulation. […] The vocalization threshold was assessed prior to testing, and testing was carried out as described above.

[3] = pH-dependent aqueous solubility of BUP in 250 mM ammonium sulfate; format: physicochemical; details: more concentrated solutions, pH higher than about 6
Protocol: In the present case, the liposomes were incubated with a 50 mg/ml solution of BUP HCl for 45 minutes at 60° C. During this process, the extraliposomal pH should be maintained at a pH less than about 6, e.g. about 5.5, to ensure BUP solubility and prevent precipitation. […] The data was produced by adding various levels of BUP, as indicated, to 250 mM ammonium sulfate at differing pH's. The samples were vortexed and centrifuged, and the amount of dissolved BUP in the supernatant was determined. […] Again, aqueous solubility substantially decreases between pH 6 and 8.

mice [4] = details: mouse, in vivo, sc
Protocol: (§2) In a control group, mice were injected with 0.15 ml nonliposomal bupivacaine at a concentration of 0.5%, the highest normally tolerated. Cooling was applied either over the injection site or over the abdomen contralateral to the injection site.

mice [5] = experiment: Tolerability of BUP concentration injected subcutaneously; details: 0.15 ml injected
Protocol: as §2

SMILES: CCCCN1CCCCC1C(=O)Nc1c(C)cccc1C (stereo not drawn) [BUP, bupivacaine]
- delayed return to normal body temperature after cessation of cooling (mice [1]): 25 to 35 min
- logD ([2]; pH 2): 0.0253
- logD ([2]; pH 4): -0.42
- logD ([2]; pH 6): -0.456
- logD ([2]; pH 8): 1.18
- BUP, mg/ml in (NH4)2(SO4) ([2]; pH 2): 2.30 mg/mL
- BUP, mg/ml in octanol ([2]; pH 2): 2.45 mg/mL
- BUP, mg/ml in (NH4)2(SO4) ([2]; pH 4): 3.32 mg/mL
- BUP, mg/ml in octanol ([2]; pH 4): 1.25 mg/mL
- BUP, mg/ml in (NH4)2(SO4) ([2]; pH 6): 3.62 mg/mL
- BUP, mg/ml in octanol ([2]; pH 6): 1.28 mg/mL
- BUP, mg/ml in (NH4)2(SO4) ([2]; pH 8): 0.32 mg/mL
- BUP, mg/ml in octanol ([2]; pH 8): 4.90 mg/mL
- time in which analgesia regressed (male Swiss-Webster mice; s.c., mice, with or without cooling (FIG. 13)): two
- effect of skin cooling (about 22° C.) on analgesia (male Swiss-Webster mice; cooling at injection site or contralateral vs no cooling): no difference
- aqueous solubility of BUP (FIG. 2) [3]: large amounts of BUP precipitated
- toxicity (mice [4]): proved toxic
- highest concentration normally tolerated (mice [5]): 0.5%
